Values belong to the molecule of their own block, whether it stands above or below them.
Columns and labels:
[1] = target: T1, 17,20-lyase (CYP17A1) (Homo sapiens, UniProt P05093); conditions: cited from earlier work
T1 sequence (P05093 1-508): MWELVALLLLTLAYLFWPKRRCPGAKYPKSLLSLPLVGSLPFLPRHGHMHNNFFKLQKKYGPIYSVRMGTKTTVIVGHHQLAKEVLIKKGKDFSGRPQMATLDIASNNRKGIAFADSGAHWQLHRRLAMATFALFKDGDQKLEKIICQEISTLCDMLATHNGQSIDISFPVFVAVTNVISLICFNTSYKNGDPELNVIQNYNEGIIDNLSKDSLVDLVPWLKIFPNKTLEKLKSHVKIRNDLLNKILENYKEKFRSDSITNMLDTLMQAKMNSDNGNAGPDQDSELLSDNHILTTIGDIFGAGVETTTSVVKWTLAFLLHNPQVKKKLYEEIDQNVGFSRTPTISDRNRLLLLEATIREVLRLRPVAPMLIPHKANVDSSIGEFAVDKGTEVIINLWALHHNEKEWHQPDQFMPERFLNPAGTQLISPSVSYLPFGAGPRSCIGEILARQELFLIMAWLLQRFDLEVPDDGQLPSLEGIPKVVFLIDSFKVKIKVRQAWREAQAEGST

[2] = system: circulating androgens (testosterone, DHT, DHEA, androstenedione); conditions: added to castration, relative to castration alone; cited from earlier work
[3] = Plasma concentrations of abiraterone acetate in previous studies; assay type: in vivo
[4] = system: mCRPC; conditions: cited from earlier work

SMILES: C[C@]12CC[C@H](O)CC1=CC[C@@H]1[C@@H]2CC[C@]2(C)C(c3cccnc3)=CC[C@@H]12 [Abiraterone]
IC50 [1]: 15 nM

plasma concentrations of abiraterone acetate [3]: below the lower limit of quantitation
SMILES: CC(=O)O[C@H]1CC[C@@]2(C)C(=CC[C@@H]3[C@@H]2CC[C@]2(C)C(c4cccnc4)=CC[C@@H]32)C1 [abiraterone acetate, Abiraterone acetate]
reduction of DHEA levels [2]: 97-98%
reduction of DHT levels [2]: 85%
reduction of androstenedione levels [2]: 77-78%

SMILES: O=C(c1cc(Cc2n[nH]c(=O)c3ccccc23)ccc1F)N1CCN(C(=O)C2CC2)CC1 [olaparib]
biomarker-negative patient tumors with a response ([4]; 2 of 33): 6%
responders who were biomarker-positive for anomalies in DNA-repair genes ([4]; 14 of the 16 patients with a response): 88%
patients with ATM aberrations who had a response ([4]; human, in vivo): 4 of 5
patients with BRCA-2 loss who had a response ([4]; human, in vivo): all 7 patients
